Results on three compounds are retold here after ChEMBL document CHEMBL2417502, “Polyketides from the littoral plant associated fungus Pseudallescheria boydii” (2013).

The subject of the test is A549. Description: Cytotoxicity against human A549 cells after 72 hrs by SRB assay. It counts as functional. The settings on record: A549, 72 h. In general terms: Sulforhodamine B stains cellular protein and so reports cell mass.
In turn, `CO[C@@H]1C(=O)CC[C@]2(CO2)[C@@]1(O)[C@@]1(C)O[C@@H]1CC=C(C)C` [OVALICIN] had a GI50 of 4.1 µM.
`CC[C@H](C)C1=C(OC)[C@H](O)[C@](C)(CC)C1=O` showed a GI50 of 41.3 µM.
`O=c1[nH]cc(F)c(=O)[nH]1` [FLUOROURACIL] registered a GI50 of 3.6 µM. This GI50 is about 11-fold lower than that of the compound before.

What is called GI50 is the concentration at which growth is held to half of that of the control. High values mean lower sensitivity of the cells, low ones greater sensitivity of the cells.
